Results on five compounds are retold here after US20240189279A1, “IMMUNOMODULATORY COMPOSITIONS AND METHODS OF USE THEREOF” (THE TEXAS A&M UNIVERSITY SYSTEM, priority 2022, published 2024).

Experiment [1] has as its target T1, AhR (Homo sapiens, UniProt P35869).
T1 sequence (P35869 11-848): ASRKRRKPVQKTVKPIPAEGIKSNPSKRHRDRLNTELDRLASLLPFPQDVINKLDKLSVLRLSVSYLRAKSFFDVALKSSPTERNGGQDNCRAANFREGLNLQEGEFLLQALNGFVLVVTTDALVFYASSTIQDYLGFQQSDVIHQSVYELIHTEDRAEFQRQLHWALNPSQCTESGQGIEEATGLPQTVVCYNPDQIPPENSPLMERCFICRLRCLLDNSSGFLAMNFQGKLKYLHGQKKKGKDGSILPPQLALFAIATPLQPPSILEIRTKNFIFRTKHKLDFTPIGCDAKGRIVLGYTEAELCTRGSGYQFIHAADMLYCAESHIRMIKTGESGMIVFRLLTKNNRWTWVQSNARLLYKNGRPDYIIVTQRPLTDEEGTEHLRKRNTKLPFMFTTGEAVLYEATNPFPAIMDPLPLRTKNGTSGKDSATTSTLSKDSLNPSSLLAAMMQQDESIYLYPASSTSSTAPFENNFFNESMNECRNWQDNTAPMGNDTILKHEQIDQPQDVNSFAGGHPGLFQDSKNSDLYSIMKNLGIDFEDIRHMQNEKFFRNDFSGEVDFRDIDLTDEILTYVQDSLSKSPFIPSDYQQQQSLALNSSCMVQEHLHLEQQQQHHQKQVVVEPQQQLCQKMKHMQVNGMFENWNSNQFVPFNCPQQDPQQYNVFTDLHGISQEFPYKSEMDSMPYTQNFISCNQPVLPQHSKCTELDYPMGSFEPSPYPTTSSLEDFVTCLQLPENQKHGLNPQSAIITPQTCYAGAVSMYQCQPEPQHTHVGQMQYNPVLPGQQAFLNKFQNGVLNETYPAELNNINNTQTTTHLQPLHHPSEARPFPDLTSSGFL
As to the kind of experiment: Cell-based AhR reporter assays. The note with it: extent comparable to other endogenous Trp-derived ligands (e.g., kynurenine). (Reporter assays use an easily measured gene product as a stand-in for the process of interest.)

The test system of experiment [2] is palmitate and LPS stimulated macrophages. As to the kind of experiment: Cytokine production in palmitate and LPS stimulated macrophages. Format: cell-based.
For experiment [3], the system named is endotoxin-treated murine bone marrow derived macrophages. Put plainly: Cytokine expression in endotoxin-treated bone marrow derived macrophages. The experiment is classed as cell-based.
Experiment [4] deals with TNFα and IL-1β expression in RAW 264.7 macrophages. As to the kind of experiment: TNFα and IL-1β expression (qRT-PCR) in RAW 264.7 macrophages, palmitate and LPS two-hit model. Format: cell-based, murine. (Real-time PCR tracks product formation cycle by cycle.)
For experiment [5], the system named is colitis and fungal infection. The settings on record: administration of indole-3-aldehyde; cited from earlier work.
Experiment [6] has as its system NSAID enteropathy. The note with it: indole administration; cited from earlier work.
Where [7] appears, read: RAW 264.7, 1 mM AICAR 4 h, 300 μM palmitate 18 h, 10 ng/ml LPS 6 h.

Turning to `NCCc1c[nH]c2ccccc12` [TA, tryptamine], the AhR activation entry in experiment [1] is “dose-dependently activate the AhR”. In experiment [2], the “production of TNF-α, IL-1β, and MCP-1” value was “dose-dependently attenuated the production of TNF-α, IL-1β, and MCP-1”. The “expression of IL-1, TNF-α, and MCP-1” value in experiment [3] was “dose-dependently downregulate the expression of IL-1, TNF-α, and MCP-1”.

For the compound `Cc1ccccc1N=Nc1ccc(NC(=O)c2ccnn2C)c(C)c1` [CH223191], the “effect of AhR inhibitor on I3A's reduction of palmitate and LPS induced TNFα and IL-β expression” value in experiment [4] (RAW 264.7, CH223191 5 μM added 10 min before 1 mM I3A) is “did not alter I3A's effect”.

For `NC(=O)c1ncn([C@@H]2O[C@H](COP(=O)(O)O)[C@@H](O)[C@H]2O)c1N` [AICAR, 5-aminoimidazole-4-carboxamide ribonucleotide], in experiment [4] (setting [7]), the “attenuation of palmitate and LPS stimulated increase in IL-1β expression” value came to 80%; the “attenuation of palmitate and LPS stimulated increase in TNFα expression” value is 30%.

Turning to `O=Cc1c[nH]c2ccccc12` [indole-3-aldehyde], in experiment [5], the “IL-22 production from natural killer (NK) cells” value is given as “induced IL-22 production from natural killer (NK) cells” and the mucosal inflammation result is “protected against mucosal inflammation”.

Turning to `c1ccc2[nH]ccc2c1` [indole], the “mucosal inflammation and injury” value in experiment [6] was “decreased mucosal inflammation and injury”.
